System: GADD45, CEBPb and MMP13 expression in differentiating canine MSCs
Experiment: Expression of hypertrophic chondrocyte markers (relative RNA levels) during chondrogenic differentiation
Type: cell-based
Conditions: relative RNA levels at days 10 and 24 of chondrogenic differentiation
Description: 1B depicts the experiment in which we added 30 ng/ml kynurenine to the differentiating MSCs to examine its effect on the markers of hypertrophic chondrocytes. In the experiment, we measured the expression of the two main regulatory transcription factors of hypertrophic chondrocyte differentiation, factors GADD45 and CEBPb, and of their target, matrix metalloproteinase-13 (MMP13), by measuring their relative RNA levels on days 10 (early) and 24 (mature) of chondrogenic differentiation.
2B depicts the experiment in which we added 50 ng/ml THBS1 to the differentiating MSCs to examine its effect on the markers of hypertrophic chondrocytes. In the experiment, we measured the expression of the two main regulatory transcription factors of hypertrophic chondrocyte differentiation, factors GADD45 and CEBPb, and of their target, matrix metalloproteinase-13 (MMP13), by measuring their relative RNA levels on days 10 (early) and 24 (mature) of chondrogenic differentiation.
During the analysis, first we quantified the levels of KYNA produced in canine AD-MSCs derived from 8 independent donations by ELISA in passage 3 cultures. […]
In another analysis, we quantified the levels of THBS1 produced in the AD-MSCs derived from 8 independent donations by ELISA in passage 3 cultures. […]

With `Nc1ccccc1C(=O)CC(N)C(=O)O` (centres unmarked) [KYNA, kynurenine] the “Effect on hypertrophic chondrocyte phenotype (expression of GADD45, CEBPb and MMP13)” value (30 ng/ml KYNA added at day 7) was “able to suppress the hypertrophic chondrocyte phenotype”.
In the case of “THBS1: Thrombospondin 1, adhesive glycoprotein encoded by the THBS1 gene, added to differentiating MSCs at 50 ng/ml”, the “Effect on hypertrophic chondrocyte phenotype (expression of GADD45, CEBPb and MMP13)” value (50 ng/ml THBS1 added at day 7) is reported as “sufficient to suppress the hypertrophic chondrocyte phenotype”.

— patent US20240174980A1, “PROCESS FOR MANUFACTURE OF A COMPOSITION FOR THE TREATMENT OF OSTEOARTHRITIS IN A SUBJECT” (STEM CELLX EUROPE KFT, priority 2021, published 2024)
